# “Also recorded” adds a separate entry of the source.
# Key:
# [1] = system: Galr2; assay: Galr2 internalization assay based on HiBiT technology; format: cell-based, human; settings: HEK293 cells; agonist 30 min; two independent experiments in triplicate
# Protocol: The HiBiT protein tagging system, like NanoBiT technology, consists of two subunits: the large fragment (LgBiT) with 156 amino acids and the small fragment of Nluc (SmBiT-High-affinity) with only 11 amino acids that has a very high affinity to LgBit. To quantify Galr2 at the cell surface, cells expressing Galr2 tagged with the SmBiT-High-affinity were treated with cell-impermeable LgBiT along with the Nluc substrate furimazine. SmBiT-High-affinity-Galr2 on the cell surface binds to LgBiT which produces a luminescent signal, while SmBiT-High-affinity-Galr2 inside the cells cannot bind to LgBiT (Fig. 4a).
# Fig. 4 Internalization of Galr2. a Schematic representation of the internalization assay. […] Before ligand stimulation, cells were pretreated with 30 μM Cmpd101 (a GRK2/3 inhibitor) for 30 min, 25 μM PitStop 2 (a Clathrin inhibitor) for 15 min, and 80 μM Dynasore (a Dynamin inhibitor) for 40 min. […] Remaining cell surface receptors were determined by measuring the luminescent signal produced by the binding between LgBiT and the Galr2-SmBiT-High affinity. Each data point represents mean ± s. e. m. of two independent experiments performed in triplicate
# (§1) Quantification of bias between each pathway was performed using Galanin as a reference ligand. All incubations for the different signaling assays were performed in serum-free medium to prevent peptide degradation.
# Internalization assays were performed using the Nano-Glo HiBiT extracellular detection system acquired from Promega Corporation (Cat. No. N2421). The day before transfection, HEK293 cells were seeded in 96-well plates at a density of 2.5 × 10^4 cells per well. The following day, cells were transfected with a mixture prepared containing 0.5 ng of SmBiT-high-affinity-Galr2 construct and 0.2 μl Lipofectamine 2000 (Invitrogen) added to each well. […] Then luminescence values were recorded immediately (Synergy 2 Multi-Mode Microplate Reader BioTek). […]
# [2] = system: Galr2; assay: SRE-Luc gene reporter assay; format: cell-based, human; settings: for Log(τ/KA), SRE-Luc: HEK293 cells, Galr2, 6 h ligand treatment, operational model (Eq. 2)
# Excerpt: Galr2 is primarily coupled to the Gαq-protein which activates the phospholipase C/protein kinase C pathway for inositol phosphate production. We measured G-protein activation in HEK293 cells transiently expressing Galr2, using the serum response element-luciferase (SRE-Luc) gene reporter assay[10],[37] and for a more specific monitoring of Gαq-protein activity we also measured total inositol phosphate production. […] However, some differences were observed between SRE-Luc activity and total inositol phosphate production in the rank order of potency of the tested ligands. […] Phosphorylation of extracellular signal-regulated protein kinases 1 and 2 (pErk1/2) is either G-protein or β-arrestin dependent. To distinguish Gαq-protein- and β-arrestin1/2-dependent Erk1/2 signaling, we examined ligand-stimulated Erk1/2 phosphorylation in three different HEK293 cell lines, wild type, Gαq/11-knockout, and β-arrestin1/2-knockout cells. All three ligands induced high levels of Erk1/2 phosphorylation dose-dependently in wild-type HEK293 cells.
# Fig. 5 Galr2 agonists display different Gαq-protein-dependent signaling and pErk1/2. The ability of increasing concentrations of agonists to induce a SRE-Luc activity and b total inositol phosphate production. c Representative western blot showing ligand-induced phosphorylation of Erk1/2 from wild-type (HEK293 WT), Gαq/11-, and β-arrestin1/2-knockout HEK293 cells expressing Galr2 (original blots are presented in Supplementary Figure 4). pErk1/2 and total Erk levels were determined at 5 min after stimulation of different concentrations of three ligands. Western blot band intensities corresponding to each concentration were quantified using Image studio ^TM Software. […] Data are the mean ± s.e.m. values of two independent experiments
# as §1
# One day before transfection, cells were seeded in 48-well plates at a density of 2.5 × 10^4 cells per well. A mixture containing 75 ng SRE-Luc reporter construct, 75 ng expression plasmid, and 0.3 μl Lipofectamine 2000 (Invitrogen) was prepared and added to each well, according to the manufacturer’s instructions. The cells were then maintained in serum-free DMEM for 16–18 h before exposure to the ligands. Approximately 48 h after transfection, the cells were treated with the respective ligands for 6 h. The cells were then lysed using 100 μl lysis buffer. The luciferase activity in 50 μl cell extract was determined using a luciferase assay system, following the standard protocol for the Synergy 2 Multi-Mode Microplate Reader Biotek.
# [3] = system: Galr2; settings: cited from earlier work
# Excerpt: (§2) G-protein-coupled receptors (GPCRs) are the largest family of cell surface receptors that communicate extracellular stimuli to the cell interior[1]. Biased ligands are of particular interest because they offer the possibility to design a novel class of therapeutic agents. In some GPCRs, biased ligands that preferentially activate G-protein-dependent signaling have therapeutic potential. […] Most descriptions of biased ag ...
# [4] = system: galanin receptor 3 (Galr3); settings: cited from earlier work
# Excerpt: as §2
# [5] = mean ± s.e.m. of three experiments in triplicate
Molecule,Galr2 internalization (decrease of cell-surface luminescent signal) [1],"Log(τ/KA), SRE-Luc [2, 5]","ΔLog(τ/KA), SRE-Luc ([2]; normalized to Galanin (reference agonist), in parenthesis, mean ± s.e.m. of three experiments in triplicate)",affinity toward Galr2 [3],affinity toward Galr3 [4],efficacy in SRE-Luc assay ([2]; HEK293 cells transiently expressing Galr2),activation of Galr2 [3],activation of Galr3 [4]
Galanin [reference compound],significantly decreased the luminescent signal in a dose-dependent manner; also recorded: efficiently induced internalization in a dose-dependent manner,4.80±0.007,0.00 ± 0.007,high affinities,low affinity,–,–,–
"Spexin (peptide, UniProt Q9BT56 27-116, looked up, Spexin, endogenous peptide ligand of Galr2 and Galr3; synthesized by AnyGen) Spexin: APQRLLERRNWTPQAMLYLKGAQGRRFISDQSRRKDLSDRPLPERRSPNPQLLTIPEAATILLASLQKSPEDEEKNFDQTRFLEDSLLNW",marginally induce internalization of the receptor; also recorded: Galr2 internalization was not detected; also recorded: did not detect Galr2 internalization,4.95±0.04,–,–,–,substantially higher efficacy,activates Galr2 and Galr3 with high affinities,activates Galr2 and Galr3 with high affinities

# From publication PMC6123711, “Conformational signatures in β-arrestin2 reveal natural biased agonism at a G-protein-coupled receptor” (Communications Biology, 2018)
